Test results published in PubChem BioAssay AID1963864 (Molecular Pharmacology Branch, DTP, NCI, 2024).
pIC50: −log10 of the molar value.

Tested on: KRAS PDC multicell spheroid viability
Test: Anticancer human tumor 521955-158-R6-J3-PDC patient-derived pancreatic carcinoma cell line growth inhibition [KRAS2]
Details: for viability, T/C: stronger effect = lower value
Text: Multicellular complex tumor spheroid response to RAS pathway inhibitors in combination with a targeted agents in patient-derived cell lines with oncogenic KRAS variants from multiple cancer types
A high-throughput screen of multi-cell type tumor spheroids was designed to identify active combinations of targeted small molecules and KRAS pathway inhibitors. Complex spheroids include a stromal component modeled by human endothelial cells (HUVEC) and fibroblasts modeled by human mesenchymal stem cells (MSCs). The concentration ranges selected for each drug and investigational agent were based upon clinically achievable concentrations if the clinical Cmax of the agent was known.
Compounds. The drugs and investigational agents: BI-3406 (NSC825286), BAY-293 (NSC824723), batoprotafib (TNO155; NSC825523), sotorasib (AMG 510; NSC818433), MRTX1257 (NSC819558), elimusertib (BAY 1895344; NSC800525), molibresib (GSK525762; NSC774829), temuterkib (LY3214996; NSC803410), venetoclax (NSC766270), alisertib (NSC759677), olaparib (NSC753686), talazoparib (NSC767125), erdafitinib (NSC781556), ipatasertib (NSC767898), cabozantinib (NSC761068), nintedanib (NSC756659), abemaciclib (NSC768073), docetaxel (NSC628503), trametinib (NSC758246), and sapanisertib (NSC764658) were obtained from the National Cancer Institute (NCI) Developmental Therapeutics Program Chemical Repository. The FDA-approved anticancer drug set is available from the Developmental Therapeutics Program. […] The stock solutions were prepared in dimethyl sulfoxide (DMSO, Sigma-Aldrich, St. Louis, MO, cat. D2650) at 800-fold the tested concentration and stored at -70 degrees C prior to their use. All drugs and investigational agents were tested over a range starting from a high concentration at or near the clinical Cmax and decreasing in half-log increments. If the clinical Cmax for an agent had not been determined, the highest concentration tested was 10 microM.
Cell Culture. All cells were maintained in an incubator at 37 degrees C and 5% CO2 with 95% humidity. The PDC lines were cultured according to standard operating procedures established by the NCI PDMR (https://pdmr.cancer.gov/sops/default.htm). Briefly, all PDCs were thawed and cultured in Matrigel-coated flasks prepared with a working solution of 1X Ham's F-12 nutrient mix, without supplementation (Invitrogen, Waltham, MA, cat. 11765054), 100 U/mL penicillin-streptomycin (Invitrogen, cat. 15140122), and 2.5% Matrigel (Corning Inc., Corning, NY, cat. 354248) for the first three passages. All PDCs were cultured in complete DMEM/F-12 media containing advanced DMEM/F-12 (Invitrogen, cat. 12634028), 4.9% defined fetal bovine serum, heat inactivated (HyClone Laboratories Inc., Logan, UT, cat. SH30070.03HI), 389 ng/mL hydrocortisone (Sigma-Aldrich, cat. H4001), 9.7 ng/mL human EGF recombinant protein (Invitrogen, cat. PHG0313), 23.4 microg/mL adenine (Sigma-Aldrich, cat. A2786), 97.3 U/mL penicillin-streptomycin (Invitrogen, cat. 15140122), 1.9 mM L-glutamine (Invitrogen, cat. 25030081), and 9.7 microM Y-27632 dihydrochloride (Tocris Bioscience, Bristol, United Kingdom, cat. 1254). The PDCs were cultured in complete DMEM/F12 media without 9.7 microM Y-27632 dihydrochloride for at least two passages prior to the screen. The established cell line HOP-62 was cultured in RPMI 1640 medium, HEPES (Invitrogen, cat. 22400105) with 10% defined fetal bovine serum (HyClone Laboratories Inc., cat. SH30070.03) and 2 mM L-glutamine (Invitrogen, cat. 25030081). The pooled donor HUVEC were cultured in endothelial cell growth medium 2 (PromoCell, Heidelberg, Germany, cat. C-22011) and the hMSC were cultured in mesenchymal stem cell growth medium 2 (PromoCell, cat. C-28009). For all experiments, HUVEC and hMSC were used at passages </=5, while the malignant cell lines were used at passages </=15. […]

[1] = curve of first compound, second compound 0.1 µM
[2] = curve of first compound, second compound 0.316 µM
[3] = curve of first compound, second compound 1 µM
[4] = curve of first compound, second compound 3.16 µM
[5] = curve of first compound, second compound 10 µM
[6] = second compound 0.1 µM, first compound 0.0316 µM
[7] = second compound 0.1 µM, first compound 0.1 µM
[8] = second compound 0.1 µM, first compound 0.316 µM
[9] = second compound 0.1 µM, first compound 1 µM
[10] = second compound 0.1 µM, first compound 3.16 µM
[11] = second compound 0.1 µM, first compound 10 µM
[12] = second compound 0.316 µM, first compound 0.0316 µM
[13] = second compound 0.316 µM, first compound 0.1 µM
[14] = second compound 0.316 µM, first compound 0.316 µM
[15] = second compound 0.316 µM, first compound 1 µM
[16] = second compound 0.316 µM, first compound 3.16 µM
[17] = second compound 0.316 µM, first compound 10 µM
[18] = second compound 1 µM, first compound 0.0316 µM
[19] = second compound 1 µM, first compound 0.1 µM
[20] = second compound 1 µM, first compound 0.316 µM
[21] = second compound 1 µM, first compound 1 µM
[22] = second compound 1 µM, first compound 3.16 µM
[23] = second compound 1 µM, first compound 10 µM
[24] = second compound 3.16 µM, first compound 0.0316 µM
[25] = second compound 3.16 µM, first compound 0.1 µM
[26] = second compound 3.16 µM, first compound 0.316 µM
[27] = second compound 3.16 µM, first compound 1 µM
[28] = second compound 3.16 µM, first compound 3.16 µM
[29] = second compound 3.16 µM, first compound 10 µM
[30] = second compound 10 µM, first compound 0.0316 µM
[31] = second compound 10 µM, first compound 0.1 µM
[32] = second compound 10 µM, first compound 0.316 µM
[33] = second compound 10 µM, first compound 1 µM
[34] = second compound 10 µM, first compound 3.16 µM
[35] = second compound 10 µM, first compound 10 µM
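Note: drug exposure lasted seven days.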
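Throughout, for viability, T/C: 100% = DMSO vehicle wells and lower means fewer viable cells.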

## CC1OCC2(CCN(c3cnc(Sc4ccnc(N)c4Cl)c(N)n3)CC2)C1N (centres undefined) + C=CC(=O)N1CCN(c2nc(=O)n(-c3c(C)ccnc3C(C)C)c3nc(-c4c(O)cccc4F)c(F)cc23)C(C)C1
[1]
  pIC50: < 5.00
[2]
  pIC50: < 5.00
[3]
  pIC50: < 5.00
[4]
  pIC50: < 5.00
[5]
  pIC50: < 5.00
[6]
  viability, T/C: 99.6%
[7]
  viability, T/C: 93.6%
[8]
  viability, T/C: 99.6%
[9]
  viability, T/C: 92%
[10]
  viability, T/C: 106%
[11]
  viability, T/C: 128%
[12]
  viability, T/C: 97.3%
[13]
  viability, T/C: 94.4%
[14]
  viability, T/C: 91.9%
[15]
  viability, T/C: 96%
[16]
  viability, T/C: 113%
[17]
  viability, T/C: 116%
[18]
  viability, T/C: 98.7%
[19]
  viability, T/C: 103%
[20]
  viability, T/C: 102%
[21]
  viability, T/C: 90.4%
[22]
  viability, T/C: 124%
[23]
  viability, T/C: 120%
[24]
  viability, T/C: 97.7%
[25]
  viability, T/C: 95.9%
[26]
  viability, T/C: 91.8%
[27]
  viability, T/C: 81.3%
[28]
  viability, T/C: 106%
[29]
  viability, T/C: 108%
[30]
  viability, T/C: 75%
[31]
  viability, T/C: 75%
[32]
  viability, T/C: 62.5%
[33]
  viability, T/C: 54.8%
[34]
  viability, T/C: 70.4%
[35]
  viability, T/C: 79%

## CC(=O)OC12COC1CC(O)C1(C)C(=O)C(O)C3=C(C)C(OC(=O)C(O)C(NC(=O)OC(C)(C)C)c4ccccc4)CC(O)(C(OC(=O)c4ccccc4)C21)C3(C)C (centres undefined)
Compound 0.01 µM
  viability, T/C: 87.1% [middle of 5 runs]
Compound 0.0316 µM
  viability, T/C: 77.4% [middle of 5 runs]
Compound 0.1 µM
  viability, T/C: 73.6% [middle of 5 runs]
Compound 0.316 µM
  viability, T/C: 86.8% [middle of 5 runs]
Compound 1 µM
  viability, T/C: 101% [middle of 5 runs]
Compound 3.16 µM
  viability, T/C: 119% [middle of 5 runs]
Curve of compound
  pIC50: < 5.50

## Cn1ncnc1[C@H]1c2n[nH]c(=O)c3cc(F)cc(c23)N[C@@H]1c1ccc(F)cc1 + C=CC(=O)N1CCN(c2nc(OCC3CCCN3C)nc3c2CCN(c2cccc4cccc(C)c24)C3)CC1CC#N
Curve of first compound, second compound 0.0316 µM
  pIC50: < 7.00
[1]
  pIC50: < 7.00
[2]
  pIC50: < 7.00
[3]
  pIC50: < 7.00
[4]
  pIC50: > 9.50
Second compound 0.0316 µM, first compound 0.000316 µM
  viability, T/C: 100%
Second compound 0.0316 µM, first compound 0.001 µM
  viability, T/C: 100%
Second compound 0.0316 µM, first compound 0.00316 µM
  viability, T/C: 98.1%
Second compound 0.0316 µM, first compound 0.01 µM
  viability, T/C: 105%
Second compound 0.0316 µM, first compound 0.0316 µM
  viability, T/C: 97%
Second compound 0.0316 µM, first compound 0.1 µM
  viability, T/C: 90.8%
Second compound 0.1 µM, first compound 0.000316 µM
  viability, T/C: 94.2%
Second compound 0.1 µM, first compound 0.001 µM
  viability, T/C: 94.5%
Second compound 0.1 µM, first compound 0.00316 µM
  viability, T/C: 104%
Second compound 0.1 µM, first compound 0.01 µM
  viability, T/C: 91.9%
[6]
  viability, T/C: 98.9%
[7]
  viability, T/C: 89.4%
Second compound 0.316 µM, first compound 0.000316 µM
  viability, T/C: 94.1%
Second compound 0.316 µM, first compound 0.001 µM
  viability, T/C: 89.9%
Second compound 0.316 µM, first compound 0.00316 µM
  viability, T/C: 95.1%
Second compound 0.316 µM, first compound 0.01 µM
  viability, T/C: 88.4%
[12]
  viability, T/C: 92.2%
[13]
  viability, T/C: 91%
Second compound 1 µM, first compound 0.000316 µM
  viability, T/C: 83.8%
Second compound 1 µM, first compound 0.001 µM
  viability, T/C: 78.6%
Second compound 1 µM, first compound 0.00316 µM
  viability, T/C: 88.3%
Second compound 1 µM, first compound 0.01 µM
  viability, T/C: 91.7%
[18]
  viability, T/C: 78.6%
[19]
  viability, T/C: 85.4%
Second compound 3.16 µM, first compound 0.000316 µM
  viability, T/C: 50.4%
Second compound 3.16 µM, first compound 0.001 µM
  viability, T/C: 43.3%
Second compound 3.16 µM, first compound 0.00316 µM
  viability, T/C: 53.2%
Second compound 3.16 µM, first compound 0.01 µM
  viability, T/C: 54.5%
[24]
  viability, T/C: 52.6%
[25]
  viability, T/C: 53.6%

## CCNC(=O)CC1N=C(c2ccc(Cl)cc2)c2cc(OC)ccc2-n2c(C)nnc21 (centres undefined) + C=CC(=O)N1CCN(c2nc(=O)n(-c3c(C)ccnc3C(C)C)c3nc(-c4c(O)cccc4F)c(F)cc23)C(C)C1
[1]
  pIC50: < 5.00
[2]
  pIC50: < 5.00
[3]
  pIC50: < 5.00
[4]
  pIC50: 6.03
[5]
  pIC50: 6.58
[6]
  viability, T/C: 88.2%
[7]
  viability, T/C: 93.7%
[8]
  viability, T/C: 79.9%
[9]
  viability, T/C: 78.5%
[10]
  viability, T/C: 81.6%
[11]
  viability, T/C: 78.6%
[12]
  viability, T/C: 103%
[13]
  viability, T/C: 105%
[14]
  viability, T/C: 79.3%
[15]
  viability, T/C: 72.2%
[16]
  viability, T/C: 83.3%
[17]
  viability, T/C: 70.6%
[18]
  viability, T/C: 112%
[19]
  viability, T/C: 108%
[20]
  viability, T/C: 83.2%
[21]
  viability, T/C: 81.1%
[22]
  viability, T/C: 66.5%
[23]
  viability, T/C: 68.7%
[24]
  viability, T/C: 89.3%
[25]
  viability, T/C: 83%
[26]
  viability, T/C: 65.6%
[27]
  viability, T/C: 49.8%
[28]
  viability, T/C: 40.7%
[29]
  viability, T/C: 45.3%
[30]
  viability, T/C: 72.1%
[31]
  viability, T/C: 68.4%
[32]
  viability, T/C: 46.2%
[33]
  viability, T/C: 35.5%
[34]
  viability, T/C: 33.7%
[35]
  viability, T/C: 29.2%

## CC1COCCN1c1cc(-c2ccnn2C)c2ccnc(-c3ccn[nH]3)c2n1 (centres undefined)
Compound 0.01 µM
  viability, T/C: 99.8% [middle of 5 runs]
Compound 0.0316 µM
  viability, T/C: 90.3% [middle of 5 runs]
Compound 0.1 µM
  viability, T/C: 83.4% [middle of 5 runs]
Compound 0.316 µM
  viability, T/C: 78.2% [middle of 5 runs]
Compound 1 µM
  viability, T/C: 84.7% [middle of 5 runs]
Compound 3.16 µM
  viability, T/C: 86.6% [middle of 5 runs]
Curve of compound
  pIC50: < 5.50
